Values quoted from earlier work, collected in US7655374B2, “Fixing liquid, toner fixing method and apparatus, and image forming method and apparatus” (Ricoh Company, Ltd., priority 2005, dated 2010).

Settings: acute oral toxicity; species not given

Which LD50 does the source give for diethoxyethyl sebacate here?
The LD50 was over 5000 mg/kg.

Which LD50 does the source give for `CCCCCCCCCCCC` [n-dodecane] here?
Its LD50 is over 5000 mg/kg.

With `CCCCCCCCCCCC(=O)OCC` [ethyl laurate] as the compound, how does the LD50 read?
Its LD50 is 3000 mg/kg.

For `CC(C)COC(=O)CCCCC(=O)OCC(C)C` [diisobutyl adipate], which LD50 is on record?
The LD50 was 12300 mg/kg.

Which LD50 does the source give for `CCCCOC(=O)CCCCCCCCC(=O)OCCCC` [dibutyl sebacate] here?
Its LD50 is 14900 mg/kg.
